From patent US20070237848A1, “MORINDA CITRIFOLIA BASED COMPOSITIONS FOR TREATMENT OF ANTI-INFLAMMATORY DISEASES THROUGH INHIBITION OF COX-1, COX-2, INTERLEUKIN-1beta, INTERLEUKIN-6, TNF-alpha, HLE, AND iNOS” (priority 2005, published 2007)

Key:
[1] = tested on: inducible Nitrite Oxide Synthase (iNOS); assay: iNOS assay in LPS-stimulated murine macrophages (J774A.1); assay type: cell-based; conditions: standard reference agent
Description: An iNOS Assay was performed as follows. Murine Macrophages (1.5*10^5 cells/well) were seeded for 24 hours. After preincubating the samples with the cells at room temperature for 10 minutes, the reaction was started with 1 μg/ml LPS (E.coli 055:B5). The incubation time was 24 hours at 37° C. and 5% CO 2. The controls [t(0)] were performed without LPS stimulation. The quantification of Nitric Oxide was performed with a Nitric Oxide Colorimetric Assay Kit from BioVision (Art.Nr: #K262-200). The optical densities were measured at λ=570 nm. […] Sample points were measured in triplicate. […] The following tables and charts and FIG. 9 summarize the assay and the results.

[2] = target: T1, Human Leukocyte Elastase (HLE) (Homo sapiens, UniProt P08246); assay: Leukocyte Elastase Assay (p-Nitroaniline, photometric); assay type: biochemical; conditions: standard reference agent
T1 sequence (P08246 30-267): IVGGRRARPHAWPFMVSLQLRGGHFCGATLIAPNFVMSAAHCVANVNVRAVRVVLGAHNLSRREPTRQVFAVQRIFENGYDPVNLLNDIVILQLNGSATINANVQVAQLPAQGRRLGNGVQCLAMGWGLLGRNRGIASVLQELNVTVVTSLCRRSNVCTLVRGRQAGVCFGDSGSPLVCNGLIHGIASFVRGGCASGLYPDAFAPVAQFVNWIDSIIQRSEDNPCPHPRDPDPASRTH
Description: A Leukocyte Elastase Assay was performed as follows. After preincubating the samples with the enzyme HLE (20 nM) at room temperature for 10 minutes, the reaction was started with an enzyme substrate (5 mM). The reaction time was 15 min at room temperature. The controls [t(0)] were performed without enzyme. […] The quantification of p-Nitroaniline was performed by direct photometrical measurement.
All sample points were measured in duplicate. […] The following tables, charts, and FIGS. 8A and 8B summarize the assay and the results.

Structure (SMILES)	IC50 [1] [µM]	IC50 [2] [µM]
COC(=O)[C@@H](N)CCCNC(=N)N[N+](=O)[O-] [L-NAME]	600	–
C[C@H]1[C@H](C)CC[C@]2(C(=O)O)CC[C@]3(C)C(=CC[C@@H]4[C@@]5(C)CC[C@H](O)C(C)(C)[C@@H]5CC[C@]43C)[C@H]12 [Ursolic acid]	–	30
